# Reference: patent US8431704B2, “Quinoline or isoquinoline substituted P2X7 antagonists” (Janssen Pharmaceutica NV, priority 2008, dated 2013)
# Target: T1, hP2X7 (Homo sapiens, UniProt Q99572)
# T1 construct: expressed in transfected cells; host or cells: 1321N1 astrocytoma cells
# T1 sequence (Q99572 1-595): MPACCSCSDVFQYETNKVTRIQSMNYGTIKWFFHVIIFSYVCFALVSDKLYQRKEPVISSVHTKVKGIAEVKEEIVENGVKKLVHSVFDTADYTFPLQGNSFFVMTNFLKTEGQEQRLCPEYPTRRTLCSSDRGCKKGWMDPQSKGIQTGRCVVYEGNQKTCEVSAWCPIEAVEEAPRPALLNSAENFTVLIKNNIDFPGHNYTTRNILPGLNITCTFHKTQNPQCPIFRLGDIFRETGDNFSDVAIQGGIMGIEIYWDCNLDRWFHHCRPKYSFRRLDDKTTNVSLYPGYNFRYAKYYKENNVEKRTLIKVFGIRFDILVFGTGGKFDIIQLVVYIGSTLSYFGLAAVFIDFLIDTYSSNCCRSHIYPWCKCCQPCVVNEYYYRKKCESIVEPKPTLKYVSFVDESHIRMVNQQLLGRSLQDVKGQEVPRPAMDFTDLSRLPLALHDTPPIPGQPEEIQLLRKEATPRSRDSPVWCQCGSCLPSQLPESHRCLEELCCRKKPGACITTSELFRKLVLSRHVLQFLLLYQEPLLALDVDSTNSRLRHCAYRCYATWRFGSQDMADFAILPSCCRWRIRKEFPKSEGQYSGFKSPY
# Assay: P2X7 antagonism: ligand-induced Ca2+ flux in 1321N1 astrocytoma cells overexpressing hP2X7
# Type: cell-based
# Settings: pIC50 = -log(IC50), read-out: hP2RX7pIC50 (mean pIC50 values) (converted)
# Protocol: Extracellular binding of ATP to P2X7 that is expressed in the cell-membrane opens the ligand gated cation channel and allows Ca^2+ entry into the cell. This ligand-induced Ca^2+ flux was measured in 1321N1 astrocytoma cells overexpressing hP2X7 for the compounds of the present invention.
# The calcium assay kit used (Molecular Devices, R8090), provides a Ca^2+ sensitive dye together with a quenching dye. However, no specifications are given by the manufacturer. The kit most likely consists of a membrane permeable acetoxymethyl (AM) ester of a fluorescent Ca^2+ indicator, such as fluo-4 or fluo-3. Upon cellular uptake, the AM esters get cleaved by esterases, liberating the Ca^2+-sensitive dye which can then bind calcium. The dyes have an absorption spectrum compatible with excitation at 488 nm by argon laser sources and a large fluorescence intensity increase in response to Ca^2+ binding without an accompanying spectral shift. Emission wavelength is in the range of 510-560 nm.
# The fluorescence, and thus the changes in intracellular [Ca^2+] in the 1321N1 cells was monitored in time before and after addition of the agonist. The effect of the antagonist was measured as % control and as IC50.
row,SMILES,IC50
1,Cc1ncc(C(CNC(=O)c2cccc3nc(N4CCCCC4)ccc23)N2CCOCC2)cn1 (stereo not shown) [Compound 98],52.5 nM
2,CC(C)(C)OC(=O)N1CCN(c2ccc3c(C(=O)NCC(c4cnc(C(F)(F)F)nc4)N4CCCCCC4)cccc3n2)CC1 (stereo not shown) [Compound 107],389 nM
3,O=C(NCC(c1cnc(C(F)(F)F)nc1)N1CCCCCC1)c1cccc2nc(N3CCNCC3)ccc12 (stereo not shown) [Compound 109],22.4 nM
4,CCN1CCN(c2ccc3c(C(=O)NCC(c4cnc(C)nc4)N4CCOCC4)cccc3n2)CC1 (stereo not shown) [Compound 116],186 nM
5,Cc1ncc(C(CNC(=O)c2cccc3nc(OC(C)C)ccc23)N2CCOCC2)cn1 (stereo not shown) [Compound 117],182 nM
6,Cc1ncc(C(CNC(=O)c2cccc3nc(N4CCN(C(C)C)CC4)ccc23)N2CCOCC2)cn1 (stereo not shown) [Compound 118],162 nM
7,Cc1ncc(C(CNC(=O)c2cccc3nc(N4CCCCCC4)ccc23)N2CCOCC2)cn1 (stereo not shown) [Compound 119],89.1 nM
8,CCOc1ccc2c(C(=O)NCC(c3cnc(C)nc3)N3CCOCC3)cccc2n1 (stereo not shown) [Compound 121],251 nM
9,Cc1ncc(C(CNC(=O)c2cccc3nc(N4CCOCC4)ccc23)N2CCOCC2)cn1 (stereo not shown) [Compound 122],115 nM
10,O=C(NCC(c1cnc(C(F)(F)F)nc1)N1CCCC(F)(F)C1)c1cccc2nc(N3CCNCC3)ccc12 (stereo not shown) [Compound 127],14.1 nM
11,O=C(NCC(c1cnc(C(F)(F)F)nc1)N1CCCOCC1)c1cccc2nc(N3CCNCC3)ccc12 (stereo not shown) [Compound 128],46.8 nM
12,Cc1ncc(C(CNC(=O)c2cccc3nc(NCCCO)ccc23)N2CCC(F)(F)CC2)cn1 (stereo not shown) [Compound 132],63.1 nM
13,O=C(NCC(c1cnc(O)nc1)N1CCC(F)(F)CC1)c1cccc2nc(N3CCOCC3)ccc12 (stereo not shown) [Compound 144],1050 nM
14,O=C(NCC(c1cnc(C(F)(F)F)nc1)N1CCC(F)(F)CC1)c1cccc2nc(NCC3CCOCC3)ccc12 (stereo not shown) [Compound 146],47.9 nM
15,O=C(NCC(c1cnc(C(F)(F)F)nc1)N1CCC(F)CC1)c1cccc2nc(N3CC(O)C3)ccc12 (stereo not shown) [Compound 155],64.6 nM
16,COC1CCN(c2ccc3c(C(=O)NCC(c4cnc(C(F)(F)F)nc4)N4CCOCC4)cccc3n2)CC1 (stereo not shown) [Compound 161],46.8 nM
17,O=C(NCC(c1cnc(C(F)(F)F)nc1)N1CCOCC1)c1cccc2nc(N3CCCC3)ccc12 (stereo not shown) [Compound 162],45.7 nM
18,O=C(NCC(c1cnc(C(F)(F)F)nc1)N1CCOCC1)c1cccc2nc(N3CCCCC3)ccc12 (stereo not shown) [Compound 163],37.2 nM

row,SMILES,IC50
1,CCOc1ccc2c(C(=O)NCC(c3cnc(C(F)(F)F)nc3)N3CCOCC3)cccc2n1 (stereo not shown) [Compound 166],49 nM
2,NC1CCN(c2ccc3c(C(=O)NCC(c4cnc(C(F)(F)F)nc4)N4CCOCC4)cccc3n2)CC1 (stereo not shown) [Compound 167],117 nM
3,CC(C)Nc1ccc2c(C(=O)NCC(c3cnc(C(F)(F)F)nc3)N3CCOCC3)cccc2n1 (stereo not shown) [Compound 168],75.9 nM
4,O=C(NC[C@H](c1cnc(C(F)(F)F)nc1)N1CCC(F)(F)CC1)c1cccc2nc(N3CCNCC3)ccc12 [Compound 171],26.9 nM
5,O=C(NCC(c1cnc(C(F)(F)F)nc1)N1CCOCC1)c1cccc2nc(N3CCC(O)C3)ccc12 (stereo not shown) [Compound 172],145 nM
6,O=C(NCC(c1cnc(C(F)(F)F)nc1)N1CCOCC1)c1cccc2nc(N3CCN(C4CC4)CC3)ccc12 (stereo not shown) [Compound 173],70.8 nM
7,O=C(NC[C@@H](c1cnc(C(F)(F)F)nc1)N1CCC(F)(F)CC1)c1cccc2nc(NC3CC3)ccc12 [Compound 175],44.7 nM
8,O=C(NCC(c1cnc(N2CCCC2)nc1)N1CCC(F)(F)CC1)c1cccc2nc(N3CCOCC3)ccc12 (stereo not shown) [Compound 176],186 nM
9,O=C(NCC(c1cnc(C(F)(F)F)nc1)N1CCOCC1)c1cccc2nc(N3CCC(F)(F)CC3)ccc12 (stereo not shown) [Compound 177],47.9 nM
10,O=C(NCC(c1cnc(C(F)(F)F)nc1)N1CCOCC1)c1cccc2nc(N3CCCOCC3)ccc12 (stereo not shown) [Compound 178],91.2 nM
11,O=C(NCC(c1cnc(C(F)(F)F)nc1)N1CCOCC1)c1cccc2nc(NC3CCCC3)ccc12 (stereo not shown) [Compound 179],89.1 nM
12,CC(C)CNc1ccc2c(C(=O)NCC(c3cnc(C(F)(F)F)nc3)N3CCOCC3)cccc2n1 (stereo not shown) [Compound 180],67.6 nM
13,CC(C)N1CCN(c2ccc3c(C(=O)NCC(c4cnc(C(F)(F)F)nc4)N4CCOCC4)cccc3n2)CC1 (stereo not shown) [Compound 181],93.3 nM
14,CC(C)OCCCNc1ccc2c(C(=O)NCC(c3cnc(C(F)(F)F)nc3)N3CCOCC3)cccc2n1 (stereo not shown) [Compound 182],112 nM
15,O=C(NCC(c1cnc(C(F)(F)F)nc1)N1CCOCC1)c1cccc2nc(NC3CCC3)ccc12 (stereo not shown) [Compound 183],53.7 nM
16,CCCNc1ccc2c(C(=O)NCC(c3cnc(C(F)(F)F)nc3)N3CCOCC3)cccc2n1 (stereo not shown) [Compound 184],61.7 nM
17,COCCCNc1ccc2c(C(=O)NCC(c3cnc(C(F)(F)F)nc3)N3CCOCC3)cccc2n1 (stereo not shown) [Compound 185],129 nM

# More lines, now with the values ahead:
row,IC50,SMILES
1,87.1 nM,Nc1ncc(C(CNC(=O)c2cccc3nc(N4CCOCC4)ccc23)N2CCC(F)(F)CC2)cn1 (stereo not shown) [Compound 187]
2,69.2 nM,CN(C)c1ncc(C(CNC(=O)c2cccc3nc(N4CCOCC4)ccc23)N2CCC(F)(F)CC2)cn1 (stereo not shown) [Compound 188]
3,110 nM,O=C(NCC(c1cnc(NC2CC2)nc1)N1CCC(F)(F)CC1)c1cccc2nc(N3CCOCC3)ccc12 (stereo not shown) [Compound 189]
4,77.6 nM,O=C(NCC(c1cnc(N2CCCC2)nc1)N1CCC(F)(F)CC1)c1cccc2nc(NC3CC3)ccc12 (stereo not shown) [Compound 190]
5,64.6 nM,O=C(NCC(c1cnc(-c2ccccc2)nc1)N1CCC(F)(F)CC1)c1cccc2nc(N3CCOCC3)ccc12 (stereo not shown) [Compound 191]
6,55 nM,COc1ncc(C(CNC(=O)c2cccc3nc(NC4CC4)ccc23)N2CCC(F)(F)CC2)cn1 (stereo not shown) [Compound 192]
7,61.7 nM,O=C(NCC(c1cnc(-c2ccccc2)nc1)N1CCC(F)(F)CC1)c1cccc2nc(NC3CC3)ccc12 (stereo not shown) [Compound 193]
8,178 nM,Nc1ncc(C(CNC(=O)c2cccc3nc(NC4CC4)ccc23)N2CCC(F)(F)CC2)cn1 (stereo not shown) [Compound 194]
9,72.4 nM,CN(C)c1ncc(C(CNC(=O)c2cccc3nc(NC4CC4)ccc23)N2CCC(F)(F)CC2)cn1 (stereo not shown) [Compound 195]
10,195 nM,CC(C)C1CCN(c2ccc3c(C(=O)NCC(c4cnc(C(F)(F)F)nc4)N4CCOCC4)cccc3n2)CC1 (stereo not shown) [Compound 196]
11,120 nM,O=C(NCC(c1cnc(C(F)(F)F)nc1)N1CCOCC1)c1cccc2nc(N3CCN(CCO)CC3)ccc12 (stereo not shown) [Compound 197]
12,77.6 nM,CN1CCN(c2ccc3c(C(=O)NCC(c4cnc(C(F)(F)F)nc4)N4CCOCC4)cccc3n2)CC1 (stereo not shown) [Compound 198]
13,407 nM,CC(C)N1CCN(c2ccc3c(C(=O)NCC(c4cnc(N(C)C)nc4)N4CCOCC4)cccc3n2)CC1 (stereo not shown) [Compound 199]
14,51.3 nM,COc1ncc(C(CNC(=O)c2cccc3nc(N4CCN(C(C)C)CC4)ccc23)N2CCC(F)(F)CC2)cn1 (stereo not shown) [Compound 200]
15,115 nM,CC(C)N1CCN(c2ccc3c(C(=O)NCC(c4cnc(-c5ccccc5)nc4)N4CCC(F)(F)CC4)cccc3n2)CC1 (stereo not shown) [Compound 201]
16,115 nM,O=C(NCC(c1cnc(N2CCNCC2)nc1)N1CCC(F)(F)CC1)c1cccc2nc(NC3CC3)ccc12 (stereo not shown) [Compound 202]
17,67.6 nM,CC(C)N1CCN(c2ccc3c(C(=O)NCC(c4cnc(N5CCOCC5)nc4)N4CCC(F)(F)CC4)cccc3n2)CC1 (stereo not shown) [Compound 203]
18,47.9 nM,O=C(NCC(c1cnc(OC2CCC2)nc1)N1CCC(F)(F)CC1)c1cccc2nc(N3CCCC3)ccc12 (stereo not shown) [Compound 204]
19,64.6 nM,O=C(NCC(c1cnc(N2CCOCC2)nc1)N1CCC(F)(F)CC1)c1cccc2nc(NC3CC3)ccc12 (stereo not shown) [Compound 205]
20,105 nM,CN(C)c1ncc(C(CNC(=O)c2cccc3nc(N4CCCC4)ccc23)N2CCC(F)(F)CC2)cn1 (stereo not shown) [Compound 206]
21,138 nM,CCc1ncc(C(CNC(=O)c2cccc3nc(NC4CC4)ccc23)N2CCOCC2)cn1 (stereo not shown) [Compound 207]
22,45.7 nM,O=C(NCC(c1cncnc1)N1CCC(F)(F)CC1)c1cccc2nc(N3CCCC3)ccc12 (stereo not shown) [Compound 208]
23,117 nM,CC(C)N1CCN(c2ccc3c(C(=O)NCC(c4cnc(N(C)C)nc4)N4CCC(F)(F)CC4)cccc3n2)CC1 (stereo not shown) [Compound 209]
24,372 nM,CC(C)c1ncc(C(CNC(=O)c2cccc3nc(N4CCCC4)ccc23)N2CCOCC2)cn1 (stereo not shown) [Compound 210]
25,79.4 nM,O=C(NCC(c1cncnc1)N1CCC(F)(F)CC1)c1cccc2nc(NCC3CC3)ccc12 (stereo not shown) [Compound 211]
26,41.7 nM,CCOc1ncc(C(CNC(=O)c2cccc3nc(N4CCCC4)ccc23)N2CCC(F)(F)CC2)cn1 (stereo not shown) [Compound 212]
